Structures can show the parent of a compound that is named as a salt.

One data set relates to collagenase. Conditions: literature or U.S. Pat. No. 4,297,372; cited from earlier work.
Data set [1] concerns the target T1, human skin fibroblast collagenase (Homo sapiens, UniProt P03956).
T1 construct: endogenous in cells; host or cells: human skin fibroblasts
T1 sequence (P03956 100-469): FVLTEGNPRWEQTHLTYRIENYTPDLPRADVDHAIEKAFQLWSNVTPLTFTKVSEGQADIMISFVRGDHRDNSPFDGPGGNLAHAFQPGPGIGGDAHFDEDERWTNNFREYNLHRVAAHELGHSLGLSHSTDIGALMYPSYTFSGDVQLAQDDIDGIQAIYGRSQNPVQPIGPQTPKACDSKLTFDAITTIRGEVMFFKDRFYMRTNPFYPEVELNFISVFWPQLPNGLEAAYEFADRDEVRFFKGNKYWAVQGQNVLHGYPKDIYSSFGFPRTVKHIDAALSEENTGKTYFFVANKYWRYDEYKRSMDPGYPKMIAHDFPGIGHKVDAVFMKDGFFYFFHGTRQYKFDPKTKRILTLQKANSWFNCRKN
As to the kind of experiment: Collagenase Assay, Test Code 006 (degradation of radiolabeled native collagen fibrils). In kind it is biochemical. Conditions: test conc.: 30 μg/ml; ratio of weight (μg) for 50% inhibition vs reference 6,6'-[ureylenebis(m-phenylenecarbonylimino)] analog; >1 = less active. As for the experimental part: (i) Collagenase Assay--Test Code 006
A collagenase assay was performed by a modification of the method of Harper, et al., Biochem., 10, 3035 (1971). In a typical assay (total volume of 0.45 ml), 100 μl of the activated enzyme was added to the ^14 C-labeled collagen fibrils (250 μl) followed by 100 μl of 50 mM cacodylate, pH 7.4, containing 5 mM calcium chloride. After incubation at 37° C. for 16 hours, the tubes were centrifuged in a Beckman microfuge for five minutes at full speed. An aliquot (200 μl) of the supernatant, representing collagenase digestion products of the fibril, was assayed for radioactivity. The effect of the test compound on collagen degradation by collagenase was examined as follows:
Varying concentrations of the test compound (in distilled water) were added to the assay tubes containing active collagenase (total volume 450 μl) and after 16 hours the amount of radioactivity in the supernatant was determined. Appropriate blanks and trypsin controls were run in parallel.
The result is expressed as an ID50 collagenase value which represents a ratio of the weight (μg) of the representative compound required for 50% inhibition of collagenase over the weight (μg) of 6,6'-[ureylenebis(m-phenylenecarbonylimino)]bis[4-hydroxy-2-naphthalenesulfonic acid]disodium salt required for 50% inhibition of collagenase.

Data set [2] in a line: In vitro binding (competition) assay with 14C reference compound on tooth powder. Conditions: 1 mg tooth powder, PBS, 60 minutes at 37° C.; relative to reference 6,6'-[ureylenebis(m-phenylenecarbonylimino)] analog; >1 = less efficient. The text has this: Using (radioactive) ^14 C-6,6'-[ureylenebis(m-phenylenecarbonylimino)]bis[4-hydroxy-2-naphthalenesulfonic acid]disodium salt, an in vitro binding (competition) assay procedure has been established which involves an insoluble substrate such as tooth powder which will bind the ^14 C-6,6'-[ureylenebis(m-phenylenecarbonylimino)]bis[4-hydroxy-2-naphthalenesulfonic acid]disodium salt. The amount of ^14 C-6,6'-[ureylenebis(m-phenylenecarbonylimino)]bis[4-hydroxy-2-naphthalenesulfonic acid]disodium salt bound is determined by washing away the unbound radioactive compound and counting CPM (counts per minute) of the insoluble tooth powder/^14 C-6,6'-[ureylenebis(m-phenylenecarbonylimino)]bis[4-hydroxy-2-naphthalenesulfonic acid]disodium salt complex. […] The inhibiting effect of the test compound on binding compared to non-radioactive 6,6'-[ureylenebis(m-phenylenecarbonylimino)]bis[4-hydroxy-2-naphthalenesulfonic acid]disodium salt was determined as follows: A one mg amount of tooth powder was incubated in one ml of phosphate buffered saline (PBS) with 10 μg of ^14 C-6,6'-[ureylenebis(m-phenylenecarbonylimino)]bis[4-hydroxy-2-naphthalenesulfonic acid]disodium salt and varying dose amounts (ranging from 0 to 2 mg) of the same cold (non-radioactive) compound. […]

A short description of data set [3]: Binding to insoluble collagenous structures. Conditions: teeth, dentin, gingiva and the like.
The test system of another data set is corneal ulcerations. The following applies: directly applied; alkali burned rabbit; cited from earlier work.
The subject of the next data set is corneal ulceration. The following applies: human; cited from earlier work.
The conditions of data set [4]: compared with cysteine; cited from earlier work.

As for `O[C@H](CS)[C@H](O)CS` (racemic) [dithiothreitol], the “collagenase inhibition / inhibition of collagen degradation” value (“collagenase inhibition / inhibition” below) in the data set on collagenase is “collagenase inhibitors”. Turning to `c1cnc2c(c1)ccc1cccnc12` [1,10-phenanthroline], in the data set on collagenase, the “collagenase inhibition / inhibition” value is “collagenase inhibitors”. Regarding `O=C(Nc1ccc(S(=O)(=O)Nc2ccc3cc(S(=O)(=O)O)cc(O)c3c2)cc1)Nc1ccc(S(=O)(=O)Nc2ccc3cc(S(=O)(=O)O)cc(O)c3c2)cc1` [6,6'-[Ureylenebis(p-phenylenesulfonylimino)]bis-[4-hydroxy-2-naphthalenesulfonic acid]disodium salt], in data set [1], the “ID50 Collagenase Ratio” value amounted to 1.73. Moreover, the “ID50 Binding Ratio” value in data set [2] was 1.55. Regarding `O=C(Nc1cccc(C(=O)Nc2ccc3cc(S(=O)(=O)O)cc(O)c3c2)c1)Nc1cccc(C(=O)Nc2ccc3cc(S(=O)(=O)O)cc(O)c3c2)c1` [6,6'-[ureylenebis(m-phenylenecarbonylimino)]bis[4-hydroxy-2-naphthalenesulfonic acid]disodium salt], in the data set with collagenase, the “collagenase inhibition / inhibition” value is “inhibitor of the degradation of collagen”. Moreover, in data set [3], the “reversibility and saturability of binding” value is “saturable and reversible”. Consider `O=C([O-])CN(CCN(CC(=O)[O-])CC(=O)[O-])CC(=O)[O-].[Ca+2].[Ca+2]` [Calcium ethylenediaminetetraacetate], for which the “frequency of corneal ulceration” value in the data set with corneal ulcerations was “reduce the frequency of ulceration”. With `Cc1ccc(C(=O)Nc2ccc(S(=O)(=O)O)c3cc(S(=O)(=O)O)cc(S(=O)(=O)O)c23)cc1NC(=O)c1cccc(NC(=O)Nc2cccc(C(=O)Nc3cc(C(=O)Nc4ccc(S(=O)(=O)O)c5cc(S(=O)(=O)O)cc(S(=O)(=O)O)c45)ccc3C)c2)c1` [Suramin], the “collagenase inhibition / inhibition” value in the data set on collagenase is given as “not inhibiting the action of collagenase”. For `CC(=O)N[C@@H](CS)C(=O)O` [acetylcysteine], in the data set with corneal ulceration, the “treatment of acute and chronic corneal ulceration” value is “effective in the treatment of acute and chronic corneal ulceration”. Moreover, in the data set on corneal ulcerations, the “frequency of corneal ulceration” value is listed as “reduce the frequency of ulceration”. The stability entry in data set [4] is recorded as “greater stability”. In the case of `N[C@@H](CS)C(=O)O` [cysteine], in the data set on collagenase, the “collagenase inhibition / inhibition” value is given as “collagenase inhibitors”. The “treatment of acute and chronic corneal ulceration” value in the data set with corneal ulceration is “effective in the treatment of acute and chronic corneal ulceration”. With `Cc1cc(-c2ccc(/N=N/c3c(S(=O)(=O)O)cc4cc(S(=O)(=O)O)cc(N)c4c3O)c(C)c2)ccc1/N=N/c1c(S(=O)(=O)O)cc2cc(S(=O)(=O)O)cc(N)c2c1O` [trypan blue], the “collagenase inhibition / inhibition” value in the data set with collagenase is recorded as “inhibiting the activity of collagenase”. Consider sodium auriothiomalate, for which the “collagenase inhibition / inhibition” value in the data set with collagenase is “collagenase inhibitors”. With “α2 -macroglobulin: serum component; naturally occurring collagenase inhibitor”, the “collagenase inhibition / inhibition” value with collagenase is listed as “collagenase inhibitors”.

The record behind these values is USH83H, “Dental antiplaque agents and inhibitors of connective tissue destruction” (American Cyanamid Company, priority 1985, dated 1986).
